Columns and labels:
MMP9 = molecular target: T1, MMP9 (Homo sapiens, UniProt P14780); assay: Activation of proMMP9 by human fetal lung fibroblast (HFL-1) cultures (Western blot); assay type: cell-based; details: 3.3 μM, HFL-1, mAb-L51/82
T1 construct: host or cells: HFL-1 human fetal lung fibroblasts
Experimental: Activation of proMMP9 by human fetal lung fibroblast cultures Compound-α was assessed additionally for ability to block the maturation of proMMP9 to active MMP9 in cultures of human fetal lung fibroblasts (HFL-1, American Type Culture Collection #CCL-153). Unlike rat synoviocytes, HFL-1 cells were unable to process proMMP9 to the active form without addition of neutrophil elastase. […] Rather, the function of elastase in this assay may be to inactivate tissue inhibitors of matrix metalloproteinases (TIMPs) that repress endogenous pathways of MMP9 activation (Am J Respir Crit. Care Med; 1999; 159:1138-46).
HLF-1 were maintained in monolayer culture in DMEM with 10% FCS and were used between passage numbers 5-15. HLF-1 were embedded in collagen gels as described for rat SCW synoviocytes (vida supra). Half mL gels containing 0.4 million cells were dislodged into wells of 12 well Costar plates containing 1 mL/well of DMEM adjusted to contain 0.05% BSA and 100 ng/mL human TNFα (R&D Systems Cat #210-TA/CF). After overnight culture (37° C. and 5% CO2) wells were adjusted to contain an additional 0.5 mL of DMEM containing 0.05% BSA and with or without 13.2 μM Compound-α (final concentration was 3.3 μM Compound-α). Next, cultures were adjusted to contain 30 nM human elastase (Innovative Research). The plates were cultured an additional 72 hrs, at which time MMP9 secreted into the conditioned media was bound to gelatin-sepharose and evaluated by Western blot analysis as described for the rat synoviocyte cultures (vida supra). mAb-51/82 detected three forms of MMP9 in HFL-1 cultures.
These included a form of approximately 100 kD with mobility similar to recombinant rat proMMP9, an approximately 80 kD form with mobility similar to rat active MMP9, and an approximately 86 kD intermediate form. In the absence of Compound-α, most of the MMP9 was present as the 80 kD form. In the presence of Compound-α, the 80 kD form was a minor fraction of the total signal while nearly half of the signal were contributed each by the 100 kD and 86 kD forms. […]
A second experiment was performed to determine if the 80 kD form was mature active MMP9 and to determine the potency of Compound-α as an inhibitor of MMP9 maturation in this assay. HFL-1 cells embedded in collagen gels were cultured as described above in the presence of TNFα overnight and the cultures were then adjusted to contain 30 nM elastase and graded concentrations of Compound-α for an additional 72 hrs at which time MMP9 secreted into the conditioned media was bound to gelatin-sepharose and evaluated by Western blot analysis for active MMP9 using pAb-1246 raised against the N-terminal neoepitope of active MMP9 (Table 5). In the absence of Compound-α, pAb-1246 readily detected MMP9 with an electrophoretic mobility of approximately 80 kD. […]

[1] = molecular target: T2, MMP9 mediated gelatinase activity (Rattus norvegicus, UniProt P50282); assay: In situ zymography of gelatinase activity in livers of SCW-induced rats; assay type: in vivo; details: for Intensity, Rat 1 / Intensity, Rat 2 / Intensity, Rat 3 / Intensity, Mean: liver
T2 construct: from tissue; host or cells: liver sections of female Lewis rats
Excerpt: In situ zymography provides an alternative approach to assess active MMP9 in tissues (Frederiks). Tissue sections are overlain with fluorescene-conjugated gelatin wherein the conjugation is sufficiently dense to cause the fluorescene to be dye-quenched (DQ). Proteolytic degradation of the DQ-gelatin releases the fluorescene from the quenching effect giving rise to bright green fluorescence at the site of degradation. Because in situ zymography requires the use of frozen sections, calcified tissues are problematic. However, an additional feature of the SCW arthritis model is the development of hepatic granulomatous disease (J Immunol; 1986; 137:2199-2209), and MMP9 reportedly plays a role in macrophage recruitment in the granulomas response to mycobacteria (Infect Immun; 2006; 74:6135-6144). Consequently, granulomatous livers from SCW-treated rats were assessed for active MMP9 by in situ zymography.
As described above, Female Lewis (LEW/N) rats, 5-6 weeks of age (80-100 g) were injected (i.p.) with saline or SCW PG-PS. On day 28, when the granulomatous response was well established, animals were sacrificed and livers were frozen in OCT cryo-sectioning medium and […] sections were cut on a Cryome HM 500 M cryotome and mounted on glass microscope slides. Sections were air dried briefly. MMP9 was confirmed as the source of the gelatinase activity in the liver by treating liver sections with monoclonal antibodies directed against the active site of the two major gelatinases MMP9 and MMP2. Liver sections overlain with 50 μL of 100 μg/mL neutralizing mouse monoclonal antibodies directed against MMP9 (Calbiochem, clone 6-6B), or MMP2 (Millipore, clone CA-4001), or with PBS for 1 hr at room temperature. Tissues were rinsed once with PBS, blotted, and briefly air dried and then overlain with DQ-gelatin (Invitrogen) dissolved to 1 mg/mL in deionized water and then diluted 1:10 in 1% wt/vol low gelling point agarose type VII (Sigma) in PBS. The sections were covered with coverslips, incubated in the dark at room temperature for 20 min, and imaged on an Olympus IX80 inverted microscope fitted with fluorescence optics, using SlideBook™ imaging software (Intelligent Imaging Innovations, Inc., Philadelphia, Pa.; version 5.0). Fluorescence intensity was determined (Table 8). When compared to a saline-treated rat, gelatinase activity was abundantly expressed in granulomatous liver sections obtained from a rat with SCW arthritis.
Next, liver in situ zymography was used to assess the relative presence of active MMP9 in rats dosed with vehicle vs. Compound-α. Female Lewis (LEW/N) rats, 5-6 weeks of age (80-100 g) were injected (i.p.) with saline or SCW PG-PS. Commencing on day 25, randomized groups of rats (n=3 rats/group) received vehicle or 20 or 50 mg/kg Compound-α BID by oral gavage. Vehicle consisted of an aqueous mixture containing 2% (v:v) N-methylpyrrolidone, 5% (v:v) glycerine, and 20% (w:v) captisol. Treatment continued daily through the morning of day 28. Four hrs after the AM dose on day 28, rats were sacrificed and livers assessed for active MMP9 by in situ zymography (Table 9). Gelatinase activity was increased markedly in SCW-induced rats, but activity was reduced by approximately 80% in animals treated with 50 mg/kg Compound-α.

T1 sequence (P14780 94-707): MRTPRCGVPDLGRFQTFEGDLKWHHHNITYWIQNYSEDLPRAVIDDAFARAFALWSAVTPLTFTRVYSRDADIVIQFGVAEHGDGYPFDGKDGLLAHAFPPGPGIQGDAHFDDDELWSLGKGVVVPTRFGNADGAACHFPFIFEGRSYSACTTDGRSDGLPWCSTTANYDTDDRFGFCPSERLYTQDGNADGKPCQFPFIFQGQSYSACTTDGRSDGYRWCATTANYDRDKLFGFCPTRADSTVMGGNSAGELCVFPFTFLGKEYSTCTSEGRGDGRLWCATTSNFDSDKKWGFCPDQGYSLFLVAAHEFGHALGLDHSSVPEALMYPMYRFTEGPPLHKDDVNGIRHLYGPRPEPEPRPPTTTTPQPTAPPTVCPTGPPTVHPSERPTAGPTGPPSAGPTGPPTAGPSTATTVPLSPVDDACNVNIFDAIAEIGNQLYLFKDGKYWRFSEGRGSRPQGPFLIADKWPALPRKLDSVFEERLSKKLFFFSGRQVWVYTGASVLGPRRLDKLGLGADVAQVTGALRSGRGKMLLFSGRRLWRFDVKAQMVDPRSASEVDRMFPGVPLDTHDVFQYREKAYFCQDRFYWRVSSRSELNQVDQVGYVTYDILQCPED
T2 sequence (P50282 108-708): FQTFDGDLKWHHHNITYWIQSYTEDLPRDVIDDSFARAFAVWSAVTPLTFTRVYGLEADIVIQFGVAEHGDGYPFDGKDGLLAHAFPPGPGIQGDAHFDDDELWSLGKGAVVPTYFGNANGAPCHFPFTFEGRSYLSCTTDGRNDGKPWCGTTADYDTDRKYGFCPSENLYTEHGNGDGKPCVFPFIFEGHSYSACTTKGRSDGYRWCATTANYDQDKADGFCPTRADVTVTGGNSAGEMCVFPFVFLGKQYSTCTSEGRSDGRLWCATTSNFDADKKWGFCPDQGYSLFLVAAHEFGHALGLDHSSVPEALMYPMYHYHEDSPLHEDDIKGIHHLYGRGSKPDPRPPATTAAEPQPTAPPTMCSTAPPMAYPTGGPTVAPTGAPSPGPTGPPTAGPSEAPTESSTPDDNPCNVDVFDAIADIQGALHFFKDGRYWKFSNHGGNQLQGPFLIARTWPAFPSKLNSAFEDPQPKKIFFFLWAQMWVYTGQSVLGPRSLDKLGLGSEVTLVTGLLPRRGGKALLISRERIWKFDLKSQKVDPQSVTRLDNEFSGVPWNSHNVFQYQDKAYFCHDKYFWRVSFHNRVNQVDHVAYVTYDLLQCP

## Cc1nc(C)c(-c2csc(Nc3cc(S(N)(=O)=O)ccc3OC(C)C)n2)s1 [Compound-α, 3-(2′,4′-Dimethyl-[4,5′]bithiazolyl-2-ylamino)-4-isopropoxy-benzenesulfonamide•HBr]
MMP9
  Percent of total signal, 80 kD: 7%
  Percent of total signal, 86 kD: 47%
  Percent of total signal, 100 kD: 46%
  Signal, Total: 91346 INT * mm^2
[1]; 50 mg/kg BID Day 25-28
  Reduction of liver gelatinase activity: approximately 80%
  Intensity, Rat 1: 3.2 RLU × 10^6
  Intensity, Rat 2: 25.6 RLU × 10^6
  Intensity, Rat 3: 4.5 RLU × 10^6
[1]; 20 mg/kg BID Day 25-28
  Intensity, Rat 1: 43.0 RLU × 10^6
  Intensity, Rat 2: 69.0 RLU × 10^6
  Intensity, Rat 3: 53.7 RLU × 10^6
[1]; 20 mg/kg BID Day 25-28, n=3
  Intensity, Mean: 55.2 RLU × 10^6
[1]; 50 mg/kg BID Day 25-28, n=3
  Intensity, Mean: 11.1 RLU × 10^6
